Laboratory results taken from ChEMBL document CHEMBL3244225, “Synthesis and biological activity of some vinyl-substituted 2-nitroimidazoles” (J Med Chem, 1977).
In brackets after ≈: the same amount, converted by molar mass. Activity calls are given as the source filed them. No cut-off for these calls is given here.

Legend:
Trichomonas vaginalis [1] = assay: Trichomonacidal activity against Trichomonas vaginalis by tube dilution method; type: functional
Trichomonas vaginalis [2] = assay: Antimicrobial activity against Trichomonas vaginalis infected in sc dosed mouse; type: functional
Trichomonas vaginalis [3] = assay: Trichomonastatic activity against Trichomonas vaginalis by tube dilution method; type: functional
Staphylococcus aureus = assay: Antimicrobial activity against Staphylococcus aureus Tour by tube dilution method; type: functional
Candida albicans = assay: Antimicrobial activity against Candida albicans SKF 2270 by tube dilution method; type: functional
Shigella sonnei = assay: Antimicrobial activity against Shigella sonnei ATCC 9290 by tube dilution method; type: functional
Proteus vulgaris = assay: Antimicrobial activity against Proteus vulgaris X19 H ATCC 881 by tube dilution method; type: functional
[4] = tested on: Mycobacterium tuberculosis; assay: Antimicrobial activity against Mycobacterium tuberculosis ATCC 9360 by tube dilution method; type: functional
[5] = Toxicity in po dosed mouse infected with Trichomonas vaginalis; type: organism-based; conditions: in vivo
Streptococcus pyogenes = assay: Antimicrobial activity against Streptococcus haemolyticus C 203 by tube dilution method; type: functional
Escherichia coli [6] = assay: Antimicrobial activity against Escherichia coli SKF 12140 by tube dilution method; type: functional
Clostridium perfringens = assay: Antimicrobial activity against Clostridium perfringens ISS 30543 by tube dilution method; type: functional
[7] = tested on: Mycoplasmoides gallisepticum; assay: Antimicrobial activity against Mycoplasma gallisepticum H21 C.Z.B. by tube dilution method; type: functional
Trichomonas vaginalis [8] = assay: Ratio of metronidazole ED50 to compound ED50 for Trichomonas vaginalis infected in sc dosed mouse; type: functional
Salmonella typhimurium = assay: Antimicrobial activity against Salmonella typhimurium Kh by tube dilution method; type: functional, Salmonella enterica subsp. enterica serovar Typhimurium; conditions: Salmonella enterica
Pseudomonas aeruginosa = assay: Antimicrobial activity against Pseudomonas aeruginosa ATCC 10145 by tube dilution method; type: functional
[9] = tested on: Trichophyton mentagrophytes; assay: Antimicrobial activity against Trichophyton mentagrophytes SKF 17410 by tube dilution method; type: functional
Klebsiella pneumoniae = assay: Antimicrobial activity against Klebsiella pneumoniae I.S.M. by tube dilution method; type: functional
Streptococcus pneumoniae = assay: Antimicrobial activity against Diplococcus pneumoniae UC41 by tube dilution method; type: functional
Escherichia coli [10] = assay: Antimicrobial activity against Escherichia coli infected in mouse at 300 mg/kg, po; type: functional, organism-based; set-up: dose 300 mg/kg

Cc1ncc([N+](=O)[O-])n1CCO [METRONIDAZOLE]
MIC (Trichomonas vaginalis [1]): 2 µg/mL (≈ 11.7 µM) | ED50 (Trichomonas vaginalis [2]): 12.3 mg/kg | MIC (Trichomonas vaginalis [3]): 0.5 µg/mL (≈ 2.92 µM)

Cc1ccc(S(=O)(=O)OCCn2c(C)cnc2[N+](=O)[O-])cc1
MIC (Staphylococcus aureus): > 100 µg/mL | MIC (Candida albicans): > 100 µg/mL | MIC (Shigella sonnei): > 100 µg/mL | MIC (Proteus vulgaris): > 100 µg/mL | MIC [4]: 100 µg/mL (≈ 307 µM) | LD50 [5]: > 1000 mg/kg | MIC (Streptococcus pyogenes): > 100 µg/mL | MIC (Trichomonas vaginalis [1]): 100 µg/mL (≈ 307 µM) | MIC (Escherichia coli [6]): > 100 µg/mL | MIC (Clostridium perfringens): 50 µg/mL (≈ 154 µM) | MIC (Trichomonas vaginalis [3]): 50 µg/mL (≈ 154 µM) | MIC [7]: > 100 µg/mL | Ratio ED50 (Trichomonas vaginalis [8]): >7 | MIC (Salmonella typhimurium): > 100 µg/mL | MIC (Pseudomonas aeruginosa): > 100 µg/mL | MIC [9]: > 100 µg/mL | MIC (Klebsiella pneumoniae): > 100 µg/mL | MIC (Streptococcus pneumoniae): > 100 µg/mL

COC(=O)/C=C/c1cnc([N+](=O)[O-])n1C
MIC (Staphylococcus aureus): > 100 µg/mL | MIC (Candida albicans): > 100 µg/mL | MIC (Shigella sonnei): 100 µg/mL (≈ 474 µM) | MIC (Proteus vulgaris): > 100 µg/mL | MIC [4]: 50 µg/mL (≈ 237 µM) | LD50 [5]: > 1000 mg/kg | MIC (Streptococcus pyogenes): > 100 µg/mL | MIC (Trichomonas vaginalis [1]): 50 µg/mL (≈ 237 µM) | MIC (Escherichia coli [6]): 50 µg/mL (≈ 237 µM) | MIC (Clostridium perfringens): > 100 µg/mL | MIC (Trichomonas vaginalis [3]): 10 µg/mL (≈ 47.4 µM) | MIC [7]: > 100 µg/mL | Ratio ED50 (Trichomonas vaginalis [8]): >2.8 | MIC (Salmonella typhimurium): 100 µg/mL (≈ 474 µM) | MIC (Pseudomonas aeruginosa): > 100 µg/mL | MIC [9]: 100 µg/mL (≈ 474 µM) | MIC (Klebsiella pneumoniae): > 100 µg/mL | MIC (Streptococcus pneumoniae): > 100 µg/mL

CCCC/C(=C\c1cnc([N+](=O)[O-])n1C)[N+](=O)[O-]
MIC (Staphylococcus aureus): 2 µg/mL (≈ 7.87 µM) | MIC (Candida albicans): 20 µg/mL (≈ 78.7 µM) | MIC (Shigella sonnei): 50 µg/mL (≈ 197 µM) | MIC (Proteus vulgaris): 50 µg/mL (≈ 197 µM) | MIC [4]: 2 µg/mL (≈ 7.87 µM) | LD50 [5]: 500 mg/kg | MIC (Streptococcus pyogenes): 5 µg/mL (≈ 19.7 µM) | MIC (Trichomonas vaginalis [1]): 50 µg/mL (≈ 197 µM) | MIC (Escherichia coli [6]): 10 µg/mL (≈ 39.3 µM) | MIC (Clostridium perfringens): 5 µg/mL (≈ 19.7 µM) | MIC (Trichomonas vaginalis [3]): 10 µg/mL (≈ 39.3 µM) | MIC [7]: 5 µg/mL (≈ 19.7 µM) | Ratio ED50 (Trichomonas vaginalis [8]): >2.9 | MIC (Salmonella typhimurium): 50 µg/mL (≈ 197 µM) | MIC (Pseudomonas aeruginosa): 100 µg/mL (≈ 393 µM) | MIC [9]: 1 µg/mL (≈ 3.93 µM) | MIC (Klebsiella pneumoniae): 100 µg/mL (≈ 393 µM) | MIC (Streptococcus pneumoniae): 2 µg/mL (≈ 7.87 µM)

C=Cn1c(C)cnc1[N+](=O)[O-]
MIC (Staphylococcus aureus): > 100 µg/mL | MIC (Candida albicans): > 100 µg/mL | MIC (Shigella sonnei): > 100 µg/mL | MIC (Proteus vulgaris): > 100 µg/mL | MIC [4]: > 100 µg/mL | LD50 [5]: 75 mg/kg | MIC (Streptococcus pyogenes): > 100 µg/mL | MIC (Trichomonas vaginalis [1]): 50 µg/mL (≈ 326 µM) | MIC (Escherichia coli [6]): > 100 µg/mL | MIC (Clostridium perfringens): > 100 µg/mL | MIC (Trichomonas vaginalis [3]): 20 µg/mL (≈ 131 µM) | MIC [7]: > 100 µg/mL | Ratio ED50 (Trichomonas vaginalis [8]): 0.6 | MIC (Salmonella typhimurium): > 100 µg/mL | MIC (Pseudomonas aeruginosa): > 100 µg/mL | MIC [9]: > 100 µg/mL | MIC (Klebsiella pneumoniae): > 100 µg/mL | MIC (Streptococcus pneumoniae): > 100 µg/mL

Cc1cnc([N+](=O)[O-])n1CCOS(C)(=O)=O
MIC (Staphylococcus aureus): 100 µg/mL (≈ 401 µM) | MIC (Candida albicans): > 100 µg/mL | MIC (Shigella sonnei): 100 µg/mL (≈ 401 µM) | MIC (Proteus vulgaris): > 100 µg/mL | MIC [4]: > 100 µg/mL | LD50 [5]: 800 mg/kg | MIC (Streptococcus pyogenes): 100 µg/mL (≈ 401 µM) | MIC (Trichomonas vaginalis [1]): 100 µg/mL (≈ 401 µM) | ED50 (Trichomonas vaginalis [2]): 8.12 mg/kg | MIC (Escherichia coli [6]): 100 µg/mL (≈ 401 µM) | MIC (Clostridium perfringens): 20 µg/mL (≈ 80.2 µM) | MIC (Trichomonas vaginalis [3]): 50 µg/mL (≈ 201 µM) | MIC [7]: > 100 µg/mL | Ratio ED50 (Trichomonas vaginalis [8]): 0.6 | MIC (Salmonella typhimurium): 100 µg/mL (≈ 401 µM) | MIC (Pseudomonas aeruginosa): > 100 µg/mL | MIC [9]: > 100 µg/mL | MIC (Klebsiella pneumoniae): > 100 µg/mL | MIC (Streptococcus pneumoniae): > 100 µg/mL

C=Cc1cnc([N+](=O)[O-])n1C
MIC (Staphylococcus aureus): 50 µg/mL (≈ 326 µM) | MIC (Candida albicans): 100 µg/mL (≈ 653 µM) | MIC (Shigella sonnei): 20 µg/mL (≈ 131 µM) | MIC (Proteus vulgaris): 100 µg/mL (≈ 653 µM) | MIC [4]: 20 µg/mL (≈ 131 µM) | LD50 [5]: 480 mg/kg | MIC (Streptococcus pyogenes): > 100 µg/mL | MIC (Trichomonas vaginalis [1]): 1 µg/mL (≈ 6.53 µM) | ED50 (Trichomonas vaginalis [2]): 14 mg/kg | MIC (Escherichia coli [6]): 10 µg/mL (≈ 65.3 µM) | MIC (Clostridium perfringens): 0.5 µg/mL (≈ 3.26 µM) | MIC (Trichomonas vaginalis [3]): 1 µg/mL (≈ 6.53 µM) | Ratio ED50 (Trichomonas vaginalis [8]): 3 | MIC (Salmonella typhimurium): 5 µg/mL (≈ 32.6 µM) | MIC (Pseudomonas aeruginosa): 20 µg/mL (≈ 131 µM) | MIC [9]: 50 µg/mL (≈ 326 µM) | MIC (Klebsiella pneumoniae): 10 µg/mL (≈ 65.3 µM) | MIC (Streptococcus pneumoniae): > 100 µg/mL

CC(/C=C/c1cnc([N+](=O)[O-])n1C)=N\N1CCCC(O)C1 (configuration not stated)
MIC (Staphylococcus aureus): 20 µg/mL (≈ 68.2 µM) | MIC (Candida albicans): > 100 µg/mL | MIC (Shigella sonnei): > 100 µg/mL | MIC (Proteus vulgaris): > 100 µg/mL | MIC [4]: 50 µg/mL (≈ 170 µM) | MIC (Streptococcus pyogenes): > 100 µg/mL | MIC (Trichomonas vaginalis [1]): 50 µg/mL (≈ 170 µM) | MIC (Escherichia coli [6]): 100 µg/mL (≈ 341 µM) | MIC (Clostridium perfringens): 20 µg/mL (≈ 68.2 µM) | MIC (Trichomonas vaginalis [3]): 20 µg/mL (≈ 68.2 µM) | MIC [7]: > 100 µg/mL | MIC (Salmonella typhimurium): > 100 µg/mL | MIC (Pseudomonas aeruginosa): > 100 µg/mL | MIC [9]: 100 µg/mL (≈ 341 µM) | MIC (Klebsiella pneumoniae): > 100 µg/mL | MIC (Streptococcus pneumoniae): 100 µg/mL (≈ 341 µM)

Cn1c(/C=C/C=O)cnc1[N+](=O)[O-]
MIC (Staphylococcus aureus): 20 µg/mL (≈ 110 µM) | MIC (Candida albicans): > 100 µg/mL | MIC (Shigella sonnei): 20 µg/mL (≈ 110 µM) | MIC (Proteus vulgaris): 20 µg/mL (≈ 110 µM) | MIC [4]: 50 µg/mL (≈ 276 µM) | MIC (Streptococcus pyogenes): 10 µg/mL (≈ 55.2 µM) | MIC (Trichomonas vaginalis [1]): 50 µg/mL (≈ 276 µM) | MIC (Escherichia coli [6]): 5 µg/mL (≈ 27.6 µM) | MIC (Clostridium perfringens): 20 µg/mL (≈ 110 µM) | MIC (Trichomonas vaginalis [3]): 20 µg/mL (≈ 110 µM) | Activity (Escherichia coli [10]): inactive | MIC [7]: 50 µg/mL (≈ 276 µM) | MIC (Salmonella typhimurium): 5 µg/mL (≈ 27.6 µM) | MIC (Pseudomonas aeruginosa): 100 µg/mL (≈ 552 µM) | MIC [9]: 10 µg/mL (≈ 55.2 µM) | MIC (Klebsiella pneumoniae): 10 µg/mL (≈ 55.2 µM) | MIC (Streptococcus pneumoniae): 5 µg/mL (≈ 27.6 µM)

Cc1cnc(/N=C/C=C/c2cnc([N+](=O)[O-])n2C)n1C
MIC (Staphylococcus aureus): > 20 µg/mL | MIC (Candida albicans): > 20 µg/mL | MIC (Shigella sonnei): > 20 µg/mL | MIC (Proteus vulgaris): > 20 µg/mL | MIC [4]: > 20 µg/mL | MIC (Streptococcus pyogenes): > 20 µg/mL | MIC (Trichomonas vaginalis [1]): 100 µg/mL (≈ 365 µM) | MIC (Escherichia coli [6]): > 20 µg/mL | MIC (Clostridium perfringens): 10 µg/mL (≈ 36.5 µM) | MIC (Trichomonas vaginalis [3]): 50 µg/mL (≈ 182 µM) | MIC [7]: > 20 µg/mL | MIC (Salmonella typhimurium): > 20 µg/mL | MIC (Pseudomonas aeruginosa): > 20 µg/mL | MIC [9]: > 20 µg/mL | MIC (Klebsiella pneumoniae): > 20 µg/mL | MIC (Streptococcus pneumoniae): > 20 µg/mL

Cn1c(/C=[N+](/C)[O-])cnc1[N+](=O)[O-]
MIC (Staphylococcus aureus): 50 µg/mL (≈ 272 µM) | MIC (Candida albicans): > 100 µg/mL | MIC (Shigella sonnei): 20 µg/mL (≈ 109 µM) | MIC (Proteus vulgaris): 20 µg/mL (≈ 109 µM) | MIC [4]: 50 µg/mL (≈ 272 µM) | MIC (Streptococcus pyogenes): 50 µg/mL (≈ 272 µM) | MIC (Trichomonas vaginalis [1]): > 100 µg/mL | MIC (Escherichia coli [6]): 10 µg/mL (≈ 54.3 µM) | MIC (Clostridium perfringens): 10 µg/mL (≈ 54.3 µM) | MIC (Trichomonas vaginalis [3]): 100 µg/mL (≈ 543 µM) | MIC [7]: 20 µg/mL (≈ 109 µM) | MIC (Salmonella typhimurium): 20 µg/mL (≈ 109 µM) | MIC (Pseudomonas aeruginosa): 100 µg/mL (≈ 543 µM) | MIC [9]: > 100 µg/mL | MIC (Klebsiella pneumoniae): 50 µg/mL (≈ 272 µM) | MIC (Streptococcus pneumoniae): 50 µg/mL (≈ 272 µM)
